Values joined by “and” are separate entries in the source; they are usually repeats but may differ in a detail not shown here. Equal values may be shown once. “Also recorded” adds a separate entry of the source. Read-outs that look alike come from different tables or passages of the source.
Legend:
[1] = target: T1, B. anthracis OSB-CoA synthetase (Bacillus anthracis, UniProt Q81K97); assay: biochemical; assay type: biochemical; conditions: for Km: read-out: Apparent Km
[2] = target: T1, B. anthracis OSB-CoA synthetase; assay: biochemical; assay type: biochemical; conditions: for Km: read-out: Km of varied substrate
[3] = target: T1, B. anthracis OSB-CoA synthetase; assay: biochemical; assay type: binding
B. anthracis ∆ANR strain = assay type: cell-based, Bacillus anthracis

T1 sequence (Q81K97 whole entry, looked up): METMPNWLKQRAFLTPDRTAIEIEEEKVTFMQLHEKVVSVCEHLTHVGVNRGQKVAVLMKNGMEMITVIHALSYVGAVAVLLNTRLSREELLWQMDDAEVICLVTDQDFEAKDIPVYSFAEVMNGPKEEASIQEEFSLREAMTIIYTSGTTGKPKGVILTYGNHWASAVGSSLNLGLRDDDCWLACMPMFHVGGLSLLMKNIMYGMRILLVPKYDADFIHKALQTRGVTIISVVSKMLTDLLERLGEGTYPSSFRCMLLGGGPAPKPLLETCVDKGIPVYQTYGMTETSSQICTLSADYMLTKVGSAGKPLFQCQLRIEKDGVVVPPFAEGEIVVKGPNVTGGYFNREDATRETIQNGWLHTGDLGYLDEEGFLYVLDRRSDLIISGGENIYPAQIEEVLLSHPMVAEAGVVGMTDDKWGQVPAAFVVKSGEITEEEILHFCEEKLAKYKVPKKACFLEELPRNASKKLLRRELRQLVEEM

## O=C(O)CCC(=O)c1ccccc1C(F)(F)F
[1]
  decrease in kcat/Km compared to OSB: 100 fold

## Nc1ncnc2c1ncn2[C@@H]1O[C@H](COP(=O)(O)O)[C@@H](O)[C@H]1O [AMP]
[2]
  Ki / αKi values, range in words: millimolar range
  Ki: 3600 µM and 4600 µM

## Nc1ncnc2c1ncn2[C@@H]1O[C@H](COP(=O)(O)OP(=O)(O)OP(=O)(O)O)[C@@H](O)[C@H]1O [ATP]
[1]; pH 7.5, 21°C
  kcat: 2.55 ± 0.0533 s⁻¹
  Km: 26.8 ± 2.7 µM
[3]
  Kd: 131 ± 22 µM
  binding to free enzyme: No significant binding

## CC(C)(COP(=O)(O)OP(=O)(O)OC[C@H]1O[C@@H](n2cnc3c(N)ncnc32)[C@H](O)[C@@H]1OP(=O)(O)O)[C@@H](O)C(=O)NCCC(=O)NCCSC(=O)c1ccccc1 [Benzoyl-CoA, benzoyl-CoA]
[2]
  Inhibition pattern: mixed-type
  Ki / αKi values, range in words: millimolar range
  αKi: 15.3 ± 2.6 mM
  Ki: 3000 ± 500 µM

## CC(C)(COP(=O)(O)OP(=O)(O)OC[C@H]1O[C@@H](n2cnc3c(N)ncnc32)[C@H](O)[C@@H]1OP(=O)(O)O)[C@@H](O)C(=O)NCCC(=O)NCCS [CoA]
[1]; pH 7.5
  kcat: 2.6 ± 0.075 s⁻¹
  Km: 304 ± 22.1 µM
[1]
  Km: 279 µM and 194 µM and 269 µM and 231 µM
[3]
  binding to enzyme-Mg^2+ATP complex: no significant binding
  binding to free enzyme: no significant binding
[2]
  Km: 49.9 µM and 66.2 µM and 39.3 µM

## O=C(O)CCC(=O)c1ccccc1C(F)(F)F [Compound 5, 4-(2-trifluoromethylphenyl)-4-oxobutyric acid]
[1]
  reduction in kcat compared to OSB: 10 fold
[1]; read-out: residual activity as substrate
  remaining activity at 1000 µM: 5.8%

## O=C(O)CCC(=O)c1ccccc1C(=O)O [OSB, o-succinylbenzoate]
[1]; pH 7.5, 21°C
  kcat: 2.58 ± 0.06 s⁻¹
  Km: 21.9 ± 2 µM
[3]
  binding to free enzyme: no significant binding
[2]
  Km: 3.6 µM and 2.8 µM

## Nc1ncnc2c1ncn2[C@@H]1O[C@H](COS(=O)(=O)NC(=O)CCC(=O)c2ccccc2C(F)(F)F)[C@@H](O)[C@H]1O [TFMP-butyl-AMS, 5’-O-(N-(2-trifluoromethylphenyl)-4-oxobutyl) adenosine sulfonamide]
B. anthracis ∆ANR strain
  whole cell activity: limited whole cell activity
[2]
  Ki / αKi values, range in words: low micromolar; also recorded: lower micromolar range
  αKi (affinity to enzyme-ATP complex): 108 ± 17.0 µM
  Ki: 5.6 µM and 5.2 µM

Reference: PMC2710618 (Biochemistry, 2008)
